Here are results for two compounds from BindingDB's records for patent US11180503 (ELI LILLY AND COMPANY, 2021).

For this assay, the target named is Dual specificity calcium/calmodulin-dependent 3',5'-cyclic nucleotide phosphodiesterase 1B (Homo sapiens, UniProt Q01064). The assay can be described thus: Ca2+-Calmodulin Dependent PDE Enzyme Assays. How it is done:
PDE1B, PDE1A, and PDE1C are cloned and purified following standard protein generation procedures. The assay buffer is prepared to give a final concentration in the assay of 50 mM Tris-HCl, 50 mM MgCl2, 4 mM CaCl2, 0.1% Bovine serum albumin and 6 U/ml Calmodulin in water, at pH 7.5.

Usually IC50 stands for the concentration needed to halve the response being measured.

Dual specificity calcium/calmodulin-dependent 3',5'-cyclic nucleotide phosphodiesterase 1B, sequence (Q01064 whole entry): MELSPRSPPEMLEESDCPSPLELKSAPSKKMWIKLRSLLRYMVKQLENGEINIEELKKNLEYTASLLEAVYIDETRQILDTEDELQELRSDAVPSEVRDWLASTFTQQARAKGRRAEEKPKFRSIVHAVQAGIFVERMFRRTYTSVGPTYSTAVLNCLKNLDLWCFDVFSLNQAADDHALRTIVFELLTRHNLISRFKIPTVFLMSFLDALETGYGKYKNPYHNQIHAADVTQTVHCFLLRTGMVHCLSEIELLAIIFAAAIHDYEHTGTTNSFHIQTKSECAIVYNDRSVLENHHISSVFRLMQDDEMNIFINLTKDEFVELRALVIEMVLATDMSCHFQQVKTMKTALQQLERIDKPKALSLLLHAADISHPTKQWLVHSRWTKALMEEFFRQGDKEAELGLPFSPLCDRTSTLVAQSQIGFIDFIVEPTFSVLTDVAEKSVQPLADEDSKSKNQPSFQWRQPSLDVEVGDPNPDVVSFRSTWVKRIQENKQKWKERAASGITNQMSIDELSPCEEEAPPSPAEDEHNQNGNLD

For `CCCCn1c(=O)c2nnc(C3(C4CC4)CC3)n2c2ncc(CO)cc21` [US11180503, Example 11], the IC50 came to 0.928 nM.

For the compound `CCCCn1c(=O)c2nnc(C3(C4CC4)CC3)n2c2ncc(CC)cc21` [US11180503, Example 9], the IC50 is 0.419 nM.
